Experimental findings from patent publication US11192888B2, “Antibacterial compounds” (priority 2017, dated 2021) are described below.

For series [1] the following is noted: amide bond, 24-membered ring, PyBOP/HOBt/DIPEA, 0.5 mM.
Another series concerns P. aeruginosa PAO1. The settings on record: for activity against P. aeruginosa in comparison to the Dha containing compound 3: PAO1; for IC50 / % Growth inhibition at 100 μM: PAO1, 13 h.
The subject of the next series is B. multivorans ATCC17616. The settings on record: ATCC17616, 25 h.
The subject of series [2] is C. difficile ATCC 43255 (aka VPI 10463; ribotype 087). The experiment in a line: Mouse model of C. difficile-associated disease. In kind it is in vivo, C57BL/6 mice.

Read-outs that look alike come from different tables or passages of the source. *1 amine or outer side, *2 acyl side, *3 side chain or, on linkers, in order; H or OH if unused. Where a SMILES comes first, the peptide text is derived from it. [ ]: non-standard residue; d: D form. dAla(ψthiazole) = C[C@@H](N[*:1])c1nc(C(=O)[*:2])cs1; Trp(4-Br) = N[C@@H](Cc1c[nH]c2cccc(Br)c12)C(=O)O; X2 = CC(C)/C=C(\N[*:1])C(=O)[*:2]; ΔVal = CC(C)=C(N)C(=O)O; Sar = CNCC(=O)O Some results are limits rather than exact numbers.

Usually IC50 stands for the concentration at which inhibition is half-maximal. Read a high IC50 as weaker potency.

In the case of `C=C1NC(=O)[C@@H](C)NC(=O)CNC(=O)[C@H](Cc2c[nH]c3ccc(Cl)c(Cl)c23)NC(=O)[C@H](Cc2c[nH]c3ccccc23)NC(=O)c2csc(n2)[C@@H](C)NC(=O)CN(C)C1=O` [Cyclo[D-Ala-Thz-Trp-Trp(4,5-C1)-Gly-D-Ala-Dha-Sar]], the ring closure, yield after HPLC in series [1] (from H-dAla-Thz-Trp-Trp(4,5-Cl)-Gly-dAla-Dha-Sar-OH?) came to 2%.

In series [1] (from H-dSer-Thz-Trp-Trp(4-Cl)-Gly-dAla-Dha-Sar-OH?), `C=C1NC(=O)[C@@H](C)NC(=O)CNC(=O)[C@H](Cc2c[nH]c3cccc(Cl)c23)NC(=O)[C@H](Cc2c[nH]c3ccccc23)NC(=O)c2csc(n2)[C@@H](CO)NC(=O)CN(C)C1=O` [Cyclo[D-Ser-Thz-Trp-Trp(4-C1)-Gly-D-Ala-Dha-Sar]] showed a ring closure, yield after HPLC of 4%.

The compound `C/C=C1\NC(=O)[C@@H](C)NC(=O)CNC(=O)[C@H](Cc2c[nH]c3cccc(Br)c23)NC(=O)[C@H](Cc2c[nH]c3ccccc23)NC(=O)c2csc(n2)[C@@H](C)NC(=O)CN(C)C1=O` [Cyclo[D-Ala-Thz-Trp-Trp(4-Br)-Gly-D-Ala-Dhb-Sar]] yielded a ring closure, yield after HPLC in series [1] (from H-dAla-Thz-Trp-Trp(4-Br)-Gly-dAla-Dhb-Sar-OH?) of 35%.

With `CC(C)=C1NC(=O)[C@@H](C)NC(=O)CNC(=O)[C@H](Cc2c[nH]c3cccc(Br)c23)NC(=O)[C@H](Cc2c[nH]c3ccccc23)NC(=O)c2csc(n2)[C@@H](C)NC(=O)CN(C)C1=O` [Compound 13, Cyclo[D-Ala-Thz-Trp-Trp(4-Br)-Gly-D-Ala-Dhv-Sar]] (cyclo(G[dA][ΔVal][Sar][dAla(ψthiazole)]W[Trp(4-Br)])), in the series with P. aeruginosa PAO1, the “activity against P. aeruginosa in comparison to the Dha containing compound 3” value is “did not result in a notable change in activity”, half-maximal inhibition (IC50) was put at 12200 ± 200 nM and the “% Growth inhibition at 100 μM” value worked out at 85.1 ± 3.4%. In the series on B. multivorans ATCC17616, this compound displayed an IC50 of 1540 ± 200 nM.

In turn, `C[C@H]1NC(=O)CNC(=O)[C@H](Cc2c[nH]c3cccc(Cl)c23)NC(=O)[C@H](Cc2c[nH]c3ccccc23)NC(=O)c2csc(n2)[C@@H](C)NC(=O)CN(C)C(=O)[C@H]([C@@H](C)O)NC1=O` [Cyclo[D-Ala-Thz-Trp-Trp(4-Cl)-Gly-D-Ala-Thr-Sar]] showed a ring closure, yield after HPLC in series [1] (from H-dAla-Thz-Trp-Trp(4-Cl)-Gly-dAla-Thr-Sar-OH?) of 14%.

The compound `C=C1NC(=O)[C@@H](C)NC(=O)CNC(=O)[C@H](Cc2c[nH]c3cccc(OC)c23)NC(=O)[C@H](Cc2c[nH]c3ccccc23)NC(=O)c2csc(n2)[C@@H](C)NC(=O)CN(C)C1=O` [Cyclo[D-Ala-Thz-Trp-Trp(4-MeO)-Gly-D-Ala-Dha-Sar]] showed a ring closure, yield after HPLC in series [1] (from H-dAla-Thz-Trp-Trp(4-MeO)-Gly-dAla-Dha-Sar-OH?) of 11%.

As for `CC(C)/C=C1\NC(=O)[C@@H](C)NC(=O)CNC(=O)[C@H](Cc2c[nH]c3cccc(Br)c23)NC(=O)[C@H](Cc2c[nH]c3ccccc23)NC(=O)c2csc(n2)[C@@H](C)NC(=O)CN(C)C1=O` [Compound 14, Cyclo[D-Ala-Thz-Trp-Trp(4-Br)-Gly-D-Ala-Dhl-Sar]] (cyclo(G[dA][X2][Sar][dAla(ψthiazole)]W[Trp(4-Br)])), in the series with P. aeruginosa PAO1, the “activity against P. aeruginosa in comparison to the Dha containing compound 3” value is reported as “dramatic loss in activity”, the IC50 was greater than 100000 nM and the “% Growth inhibition at 100 μM” value turned out to be 40.1 ± 6.8%. The same compound displayed an IC50 in the series on B. multivorans ATCC17616 of 980 ± 100 nM.

Regarding `CCc1c(Cl)c(O)c(Cl)c(O)c1C(=O)O[C@H]1[C@H](O)[C@H](OC)[C@H](OC/C2=C\C=C\C[C@H](O)/C(C)=C/[C@H](CC)[C@@H](O[C@@H]3OC(C)(C)[C@@H](OC(=O)C(C)C)[C@H](O)[C@@H]3O)/C(C)=C/C(C)=C/C[C@@H]([C@@H](C)O)OC2=O)O[C@@H]1C` [Fidaxomicin, reference compound], in series [2] (2.5 mg/kg), the “survival to the end of the study at day-21 post-infection” value is “survived to the end of the study”. In addition, the Mean survival in series [2] (2.5 mg/kg oral BD for 5 days) is 504.00 h.

In the case of `C/C=C1\NC(=O)[C@@H](C)NC(=O)CNC(=O)[C@H](Cc2c[nH]c3cccc(Cl)c23)NC(=O)[C@H](Cc2c[nH]c3ccccc23)NC(=O)c2csc(n2)[C@@H](C)NC(=O)CN(C)C1=O` [Cyclo[D-Ala-Thz-Trp-Trp(4-Cl)-Gly-D-Ala-Dhb-Sar]], the ring closure, yield after HPLC in series [1] (from H-dAla-Thz-Trp-Trp(4-Cl)-Gly-dAla-Dhb-Sar-OH?) was 5%.

In series [1] (from H-dSer(OMe)-Thz-Trp-Trp(4-Br)-Gly-dAla-Dha-Sar-OH?), `C=C1NC(=O)[C@@H](C)NC(=O)CNC(=O)[C@H](Cc2c[nH]c3cccc(Br)c23)NC(=O)[C@H](Cc2c[nH]c3ccccc23)NC(=O)c2csc(n2)[C@@H](COC)NC(=O)CN(C)C1=O` [Cyclo[D-Ser(OMe)-Thz-Trp-Trp(4-Br)-Gly-D-Ala-Dha-Sar]] registered a ring closure, yield after HPLC of 6%.

`C=C1NC(=O)[C@@H](C)NC(=O)CNC(=O)[C@H](Cc2c[nH]c3cccc(F)c23)NC(=O)[C@H](Cc2c[nH]c3ccccc23)NC(=O)c2csc(n2)[C@@H](C)NC(=O)CN(C)C1=O` [Cyclo[D-Ala-Thz-Trp-Trp(4-F)-Gly-D-Ala-Dha-Sar]] gave a ring closure, yield after HPLC in series [1] (from H-dAla-Thz-Trp-Trp(4-F)-Gly-dAla-Dha-Sar-OH?) of 2%.

On to `C[C@H]1NC(=O)CNC(=O)[C@H](Cc2c[nH]c3cccc(Br)c23)NC(=O)[C@H](Cc2c[nH]c3ccccc23)NC(=O)c2csc(n2)[C@@H](C)NC(=O)CN(C)C(=O)/C(=C/c2ccccc2)NC1=O` [Cyclo[D-Ala-Thz-Trp-Trp(4-Br)-Gly-D-Ala-Dhp-Sar]], for which the ring closure, yield after HPLC in series [1] (from H-dAla-Thz-Trp-Trp(4-Br)-Gly-dAla-Dhp-Sar-OH?) is 35%.

On to `C/C=C1\NC(=O)[C@@H](C)NC(=O)CNC(=O)[C@H](Cc2c[nH]c3cccc(Br)c23)NC(=O)[C@H](Cc2c[nH]c3ccccc23)NC(=O)c2csc(n2)[C@@H](COC)NC(=O)CN(C)C1=O` [Cyclo[D-Ser(OMe)-Thz-Trp-Trp(4-Br)-Gly-D-Ala-Dhb-Sar]], for which the ring closure, yield after HPLC in series [1] (from H-dSer(OMe)-Thz-Trp-Trp(4-Br)-Gly-dAla-Dhb-Sar-OH?) was found to be 19%.

With `C=C1NC(=O)[C@@H](C)NC(=O)CNC(=O)[C@H](Cc2c[nH]c3cccc(Cl)c23)NC(=O)[C@H](Cc2c[nH]c3ccccc23)NC(=O)c2csc(n2)[C@@H](C)NC(=O)CN(C)C1=O` [Cyclo[D-Ala-Thz-Trp-Trp(4-C1)-Gly-D-Ala-Dha-Sar]], the ring closure, yield after HPLC in series [1] (from H-dAla-Thz-Trp-Trp(4-Cl)-Gly-dAla-Dha-Sar-OH?) stood at 5%.

`CC(C)=C1NC(=O)[C@@H](C)NC(=O)CNC(=O)[C@H](Cc2c[nH]c3cccc(Br)c23)NC(=O)[C@H](Cc2c[nH]c3ccccc23)NC(=O)c2csc(n2)[C@@H](C)NC(=O)CN(C)C1=O` [Cyclo[D-Ala-Thz-Trp-Trp(4-Br)-Gly-D-Ala-Dhv-Sar]] gave a ring closure, yield after HPLC in series [1] (from H-dAla-Thz-Trp-Trp(4-Br)-Gly-dAla-Dhv-Sar-OH?) of 42%.

In turn, `CC(C)/C=C1\NC(=O)[C@@H](C)NC(=O)CNC(=O)[C@H](Cc2c[nH]c3cccc(Br)c23)NC(=O)[C@H](Cc2c[nH]c3ccccc23)NC(=O)c2csc(n2)[C@@H](C)NC(=O)CN(C)C1=O` [Cyclo[D-Ala-Thz-Trp-Trp(4-Br)-Gly-D-Ala-Dhl-Sar]] showed a ring closure, yield after HPLC in series [1] (from H-dAla-Thz-Trp-Trp(4-Br)-Gly-dAla-Dhl-Sar-OH?) of 35%.

With `C=C1NC(=O)[C@@H](C)NC(=O)CNC(=O)[C@H](Cc2c[nH]c3cccc(Br)c23)NC(=O)[C@H](Cc2c[nH]c3ccccc23)NC(=O)c2csc(n2)[C@@H](C)NC(=O)CN(C)C1=O` [Cyclo[D-Ala-Thz-Trp-Trp(4-Br)-Gly-D-Ala-Dha-Sar]], the ring closure, yield after HPLC in series [1] (from H-dAla-Thz-Trp-Trp(4-Br)-Gly-dAla-Dha-Sar-OH?) amounted to 7%.

`C=C1NC(=O)[C@@H](C)NC(=O)CNC(=O)[C@H](Cc2c[nH]c3ccccc23)NC(=O)[C@H](Cc2c[nH]c3ccccc23)NC(=O)c2csc(n2)[C@@H](C)NC(=O)CN(C)C1=O` [Cyclo(D-Ala-D-Thiazole-L-Trp-L-Trp-Gly-D-Ala-Dha-Sar)] came in with a ring closure, yield after HPLC in series [1] (from H-dAla-Thz-Trp-Trp-Gly-dAla-Dha-Sar-OH?, DCM) of 7%.

With `c1cc(-c2nc3ccc(-c4ccc5nc(-c6ccncc6)[nH]c5c4)cc3[nH]2)ccn1` [SMT19969, reference compound], in series [2] (20 mg/kg oral BD for 5 days), the Mean survival is given as 88.00 h.

Compound `C=C1NC(=O)[C@@H](C)NC(=O)CNC(=O)[C@H](Cc2c[nH]c3cccc(C(F)(F)F)c23)NC(=O)[C@H](Cc2c[nH]c3ccccc23)NC(=O)c2csc(n2)[C@@H](C)NC(=O)CN(C)C1=O` [Cyclo[D-Ala-Thz-Trp-Trp(4-CF3)-Gly-D-Ala-Dha-Sar]] showed a ring closure, yield after HPLC in series [1] (from H-dAla-Thz-Trp-Trp(4-CF3)-Gly-dAla-Dha-Sar-OH?) of 6%.
